Read-outs that look alike come from different tables or passages of the source.

The values below come from patent US20190290683A1 (KEIO UNIVERSITY, priority 2016, published 2019).

For assay [1], the system named is rat hemorrhagic shock model. As to conditions: 6 hours after initiation of resuscitation; 1.3% hydrogen+26% oxygen+72.7% nitrogen inhaled 0 to 120 minutes (resuscitation phase only); control 30%.
Procedure: In this test, improvement of the survival rate by hydrogen inhalation at the initiation point of resuscitation after shock in rat hemorrhagic shock model was evaluated.
The procedure in SD rats (250-300 g) to exsanguinate so that mean arterial pressure of 30-35 mmHg was maintained for 60 minutes, and then resuscitate with four times the exsanguinated volume of saline over 15 minutes to evaluate the survival rate at 6 hours after initiation of resuscitation was according to [Example 1].
In this test, test gas was given by inhalation as follows.
Another assay deals with hemorrhagic shock model. As to conditions: for Exsanguinated/body weight (ml/100 g): exsanguinated volume per 100 g of body weight to maintain blood pressure at 30-35 mmHg. The protocol: In this Example, the effect of hydrogen gas on a hemorrhagic shock model was evaluated according to the test protocol shown in FIG. 1.
With SD rats (male, 250-300 g), an anesthetic drug was intraperitoneally administered to perform general anesthesia. Subsequently, a PE catheter was inserted into the left femoral artery to perform direct arterial pressure monitoring, and further, an exsanguination catheter from the right femoral artery and a left ventricle catheter for cardiac function measurement from the right common artery were each inserted.
The shock phase was initiated with the initiation of exsanguination. Exsanguination was slowly performed over 15 minutes, and for a total of 60 minutes since the initiation of exsanguination, the mean arterial pressure was maintained at 30-35 mmHg.
The resuscitation phase was initiated with the initiation of resuscitation by transfusion. Transfusion resuscitation by four times the exsanguinated volume of saline was performed over 15 minutes. Test gas inhalation (hydrogen group (21% oxygen+1.3% hydrogen) and control group (21% oxygen)) were performed for a total of 3 hours from the initiation of exsanguination to 2 hours after the initiation of resuscitation. In doing so, cardiac function (LVEDP, ±dP/dt) during the same period was also recorded.
The initiation of the observation phase was 2 hours after the initiation of the resuscitation phase, and observation was performed for 4 hours thereafter (6 hours from the initiation of the resuscitation phase). During this period, blood pressure (systolic, diastolic, mean), heart rate, and the like were measured with artificial respiration in room air.
Lactic acid value and blood gas at the initiation point of shock phase (baseline), the initiation point of resuscitation phase (0 minute), the initiation point of observation phase (120 minutes), and the end-of-test timepoint (360 minutes) were each measured and evaluated.

Where [2] appears, read: change over time after initiation of resuscitation, vs control group.
The mark [3] stands for this setting: change over time after initiation of resuscitation, vs control group, throughout the observation period.
Setting [4] is: electrolyte at 120 minutes, vs control group.

Turning to `[HH]` [hydrogen gas], the survival rate in assay [1] is reported as 50%. Besides, the heart rate entry in the assay with hemorrhagic shock model (after initiation of resuscitation, vs control group) was “no great difference”. In addition, the pH result in the assay on hemorrhagic shock model (blood gas at 120 minutes, vs control group, normal value about 7.4) was “statistically significantly higher”. Also, in the assay with hemorrhagic shock model (blood gas at 120 minutes, vs control group, normal value about 24), the HCO3 entry is given as “statistically significantly higher”. The “BE (base excess)” value with hemorrhagic shock model (blood gas at 120 minutes, vs control group, normal value about -2) is “statistically significantly improved”. Moreover, in the assay on hemorrhagic shock model (setting [2]), the “left ventricular end-diastolic pressure (LVEDP)” value is listed as “no statistically significantly difference”, the “negative dP/dt” value was “no statistically significantly difference” and the “positive dP/dt” value is “no statistically significantly difference”. Further, in the assay with hemorrhagic shock model (setting [3]), the diastolic blood pressure result is recorded as “higher value”, the mean blood pressure entry is given as “higher value” and the systolic blood pressure entry is “higher value”. In the assay with hemorrhagic shock model (setting [4]), the K result is “statistically significantly lower” and the Na entry is given as “no statistically significant difference”. Moreover, the “survival (individuals surviving)” value with hemorrhagic shock model (end-of-test timepoint at 6 hours after initiation of resuscitation, control 3/10) is on record as 8/10. In addition, the “Exsanguinated/body weight (ml/100 g)” value in the assay on hemorrhagic shock model (21% oxygen+1.3% hydrogen, N = 15) stood at 2.60±0.40 ml/100 g. In addition, the “Exsanguinated/body weight (ml/100 g)” value in the assay with hemorrhagic shock model (21% oxygen+1.3% hydrogen, N = 15, listed as H2) turned out to be 2.60 ± 0.40 ml/100 g. Further, in the assay with hemorrhagic shock model (exsanguinated volume to maintain mean arterial pressure at 30-35 mmHg, 21% oxygen+1.3% hydrogen, N = 15), the “Exsanguinated” value amounted to 7.03 ± 1.15 mL. Further, in the assay on hemorrhagic shock model (extent of anemia at 120 minutes, vs control group), the “hemoglobin (Hb)” value was “no statistically significant difference”. For the same molecule, in the assay with hemorrhagic shock model (initiation point of observation phase (120 minutes), vs control group, normal value 1.0 or less), the lactic acid value result is given as “statistically significantly lower”. Moreover, the “PaCO2 (Partial pressure of carbon dioxide)” value in the assay on hemorrhagic shock model (oxygenation indicator at 120 minutes, vs control group, normal around 40 mmHg) is on record as “no statistical difference”. The “PaO2 (Partial pressure of oxygen)” value with hemorrhagic shock model (oxygenation indicator at 120 minutes, vs control group, normal around 100 mmHg) is “higher values for the control group”.
